± gives the expanded uncertainty stated by the source.
Assay: activity coefficient (dimensionless); of the first substance listed, at infinite dilution; xn = mol fraction of the nth substance listed
Conditions: Liquid, Chromatography, x1 = 0

| Structure (SMILES) | activity coefficient (318.15 K) | activity coefficient (323.15 K) | activity coefficient (333.15 K) | activity coefficient (343.15 K) | activity coefficient (353.15 K) |
| --- | --- | --- | --- | --- | --- |
| COCCOC [1,2-dimethoxyethane] + CCn1cc[n+](C)c1.CS(=O)(=O)[O-] | 5.58 ± 0.38 | 5.62 ± 0.38 | 5.69 ± 0.39 | 5.75 ± 0.39 | 5.8 ± 0.4 |
| Cc1cccc(C)c1 [1,3-dimethylbenzene] + CCn1cc[n+](C)c1.CS(=O)(=O)[O-] | 20.8 ± 2.2 | 20.5 ± 2.2 | 19.9 ± 2.1 | 19.3 ± 2 | 18.8 ± 2 |
| FC(F)(F)C(Cl)Br (stereo not given) [1-bromo-1-chloro-2,2,2-trifluoroethane] + CCn1cc[n+](C)c1.CS(=O)(=O)[O-] | 0.586 ± 0.042 | 0.632 ± 0.044 | 0.739 ± 0.049 | 0.843 ± 0.054 | 0.96 ± 0.06 |
| COC(C)(C)C [2-methoxy-2-methylpropane] + CCn1cc[n+](C)c1.CS(=O)(=O)[O-] | 34.6 ± 2.4 | 33.8 ± 2.3 | 32.6 ± 2.2 | 31.8 ± 2.2 | 30.9 ± 2.1 |
| CC(C)=O [acetone] + CCn1cc[n+](C)c1.CS(=O)(=O)[O-] | 2.46 ± 0.17 | 2.47 ± 0.17 | 2.47 ± 0.17 | 2.48 ± 0.17 | 2.49 ± 0.17 |
| CC#N [acetonitrile] + CCn1cc[n+](C)c1.CS(=O)(=O)[O-] | 0.862 ± 0.055 | 0.873 ± 0.056 | 0.887 ± 0.056 | 0.9 ± 0.057 | 0.912 ± 0.058 |
| c1ccccc1 [benzene] + CCn1cc[n+](C)c1.CS(=O)(=O)[O-] | 4.51 ± 0.47 | 4.5 ± 0.47 | 4.48 ± 0.47 | 4.48 ± 0.47 | 4.46 ± 0.47 |
| CCC(C)=O [butanone] + CCn1cc[n+](C)c1.CS(=O)(=O)[O-] | 4.48 ± 0.31 | 4.46 ± 0.3 | 4.48 ± 0.31 | 4.41 ± 0.3 | 4.38 ± 0.3 |
| C1CCCCC1 [cyclohexane] + CCn1cc[n+](C)c1.CS(=O)(=O)[O-] | 123 ± 13 | 115 ± 12 | 103 ± 11 | 93.2 ± 9.8 | 84.3 ± 8.9 |
| ClCCl [dichloromethane] + CCn1cc[n+](C)c1.CS(=O)(=O)[O-] | 0.7 ± 0.047 | 0.727 ± 0.048 | 0.78 ± 0.051 | 0.833 ± 0.054 | 0.887 ± 0.056 |
| CC(C)OC(C)C [diisopropyl ether] + CCn1cc[n+](C)c1.CS(=O)(=O)[O-] | 127 ± 26 | 122 ± 25 | 114 ± 23 | 107 ± 22 | 101 ± 20 |
| COC(=O)OC [dimethyl carbonate] + CCn1cc[n+](C)c1.CS(=O)(=O)[O-] | 3.18 ± 0.22 | 3.17 ± 0.22 | 3.16 ± 0.22 | 3.15 ± 0.21 | 3.14 ± 0.21 |
| CCO [ethanol] + CCn1cc[n+](C)c1.CS(=O)(=O)[O-] | 0.513 ± 0.038 | 0.509 ± 0.038 | 0.501 ± 0.038 | 0.496 ± 0.038 | 0.493 ± 0.038 |
| CCOC(C)=O [ethyl acetate] + CCn1cc[n+](C)c1.CS(=O)(=O)[O-] | 7.32 ± 0.5 | 7.29 ± 0.5 | 7.22 ± 0.49 | 7.17 ± 0.49 | 7.12 ± 0.49 |
| CCc1ccccc1 [ethylbenzene] + CCn1cc[n+](C)c1.CS(=O)(=O)[O-] | 19.1 ± 2 | 18.8 ± 2 | 18.3 ± 1.9 | 17.8 ± 1.9 | 17.3 ± 1.8 |
| CCC1CCCCC1 [ethylcyclohexane] + CCn1cc[n+](C)c1.CS(=O)(=O)[O-] | 344 ± 36 | 326 ± 34 | 291 ± 31 | 262 ± 28 | 237 ± 25 |
| CCCCCCC [heptane] + CCn1cc[n+](C)c1.CS(=O)(=O)[O-] | 637 ± 130 | 596 ± 120 | 523 ± 110 | 471 ± 96 | 422 ± 86 |
| CO [methanol] + CCn1cc[n+](C)c1.CS(=O)(=O)[O-] | 0.238 ± 0.029 | 0.239 ± 0.029 | 0.242 ± 0.03 | 0.244 ± 0.03 | 0.247 ± 0.03 |
| C[N+](=O)[O-] [nitromethane] + CCn1cc[n+](C)c1.CS(=O)(=O)[O-] | 0.612 ± 0.043 | 0.621 ± 0.043 | 0.638 ± 0.044 | 0.653 ± 0.045 | 0.668 ± 0.045 |
| ClC(Cl)(Cl)Cl [tetrachloromethane] + CCn1cc[n+](C)c1.CS(=O)(=O)[O-] | 4.93 ± 0.34 | 5.08 ± 0.35 | 5.36 ± 0.37 | 5.62 ± 0.38 | 5.87 ± 0.4 |
| Cc1ccccc1 [toluene] + CCn1cc[n+](C)c1.CS(=O)(=O)[O-] | 9.41 ± 0.99 | 9.37 ± 0.99 | 9.23 ± 0.97 | 9.12 ± 0.96 | 9 ± 0.95 |

More lines, now with the values ahead:

| activity coefficient (318.15 K) | activity coefficient (323.15 K) | activity coefficient (333.15 K) | activity coefficient (343.15 K) | activity coefficient (353.15 K) | Structure (SMILES) |
| --- | --- | --- | --- | --- | --- |
| 3.59 ± 0.24 | 3.6 ± 0.25 | 3.61 ± 0.25 | 3.63 ± 0.25 | 3.66 ± 0.25 | COC(C)=O [methyl ethanoate] + CCn1cc[n+](C)c1.CS(=O)(=O)[O-] |
| 211 ± 22 | 198 ± 21 | 177 ± 19 | 160 ± 17 | 147 ± 16 | CC1CCCCC1 [methylcyclohexane] + CCn1cc[n+](C)c1.CS(=O)(=O)[O-] |
| 374 ± 26 | 356 ± 24 | 325 ± 22 | 300 ± 21 | 277 ± 19 | C=CCCCCCC [oct-1-ene] + CCn1cc[n+](C)c1.CS(=O)(=O)[O-] |
| 1020 ± 110 | 949 ± 100 | 839 ± 89 | 752 ± 79 | 676 ± 71 | CCCCCCCC [octane] + CCn1cc[n+](C)c1.CS(=O)(=O)[O-] |
| 0.801 ± 0.052 | 0.789 ± 0.051 | 0.771 ± 0.05 | 0.754 ± 0.05 | 0.742 ± 0.049 | CCCO [propan-1-ol] + CCn1cc[n+](C)c1.CS(=O)(=O)[O-] |
| 0.974 ± 0.061 | 0.958 ± 0.06 | 0.933 ± 0.059 | 0.913 ± 0.058 | 0.9 ± 0.057 | CC(C)O [propan-2-ol] + CCn1cc[n+](C)c1.CS(=O)(=O)[O-] |
| 5.37 ± 0.37 | 5.33 ± 0.36 | 5.24 ± 0.36 | 5.18 ± 0.35 | 5.1 ± 0.35 | C1CCOC1 [tetrahydrofuran] + CCn1cc[n+](C)c1.CS(=O)(=O)[O-] |
| 2.04 ± 0.14 | 2.06 ± 0.14 | 2.11 ± 0.14 | 2.16 ± 0.15 | 2.2 ± 0.15 | c1ccsc1 [thiophene] + CCn1cc[n+](C)c1.CS(=O)(=O)[O-] |
| 0.488 ± 0.037 | 0.515 ± 0.038 | 0.572 ± 0.041 | 0.633 ± 0.044 | 0.694 ± 0.047 | ClC(Cl)Cl [trichloromethane] + CCn1cc[n+](C)c1.CS(=O)(=O)[O-] |

From the NIST ThermoML archive (doi:10.1016/j.fluid.2010.10.008)
